Measurements as given in ChEMBL document CHEMBL5724914, “Linking interpersonal differences in gut microbiota composition and drug biotransformation activity” (2024).

How the values were obtained:
[1] = human gut metagenome, 24 h, 2 µM
[2] = The drug is tested on WLS-052 corresponding to human gut metagenome with ENA study accession number: PRJEB37062 and ENA sample accession number: ERS12561747 for biotransformation under anaerobic condition. The drug concentrations were measured over 9 timepoints collected between 0 and 24 hours of incubation by liquid-chromatography-coupled mass spectrometry (LC–MS); conditions: 2 µM
[3] = human gut metagenome, 24 h, 2 µM; remark: listed apart in the source
[4] = human gut metagenome, 24 h, 2 µM; remark: listed apart in the source
[5] = The drug is tested on WLS-090 corresponding to human gut metagenome with ENA study accession number: PRJEB37062 and ENA sample accession number: ERS12561753 for biotransformation under anaerobic condition. The drug concentrations were measured over 9 timepoints collected between 0 and 24 hours of incubation by liquid-chromatography-coupled mass spectrometry (LC–MS); conditions: 2 µM
[6] = human gut metagenome, 24 h, 2 µM; remark: listed apart in the source
[7] = The drug is tested on WLS-350 corresponding to human gut metagenome with ENA study accession number: PRJEB37062 and ENA sample accession number: ERS12561789 for biotransformation under anaerobic condition. The drug concentrations were measured over 9 timepoints collected between 0 and 24 hours of incubation by liquid-chromatography-coupled mass spectrometry (LC–MS); conditions: 2 µM
[8] = human gut metagenome, 24 h, 2 µM; remark: listed apart in the source
[9] = The drug is tested on WLS-098 corresponding to human gut metagenome with ENA study accession number: PRJEB37062 and ENA sample accession number: ERS12561754 for biotransformation under anaerobic condition. The drug concentrations were measured over 9 timepoints collected between 0 and 24 hours of incubation by liquid-chromatography-coupled mass spectrometry (LC–MS); conditions: 2 µM
[10] = human gut metagenome, 24 h, 2 µM; remark: listed apart in the source
[11] = The drug is tested on Z-009 corresponding to pig gut metagenome with ENA study accession number: PRJEB37062 and ENA sample accession number: ERS12561809 for biotransformation under anaerobic condition. The drug concentrations were measured over 9 timepoints collected between 0 and 24 hours of incubation by liquid-chromatography-coupled mass spectrometry (LC–MS); conditions: 2 µM
[12] = human gut metagenome, 24 h, 2 µM; remark: listed apart in the source
[13] = The drug is tested on Z-017 corresponding to mouse gut metagenome with ENA study accession number: PRJEB37062 and ENA sample accession number: ERS12561816 for biotransformation under anaerobic condition. The drug concentrations were measured over 9 timepoints collected between 0 and 24 hours of incubation by liquid-chromatography-coupled mass spectrometry (LC–MS); conditions: 2 µM
[14] = human gut metagenome, 24 h, 2 µM; remark: listed apart in the source
[15] = The drug is tested on Z-019 corresponding to rat gut metagenome with ENA study accession number: PRJEB37062 and ENA sample accession number: ERS12561818 for biotransformation under anaerobic condition. The drug concentrations were measured over 9 timepoints collected between 0 and 24 hours of incubation by liquid-chromatography-coupled mass spectrometry (LC–MS); conditions: 2 µM
[16] = The drug is tested on Z-005 corresponding to metagenome with ENA study accession number: PRJEB37062 and ENA sample accession number: ERS12561805 for biotransformation under anaerobic condition. The drug concentrations were measured over 9 timepoints collected between 0 and 24 hours of incubation by liquid-chromatography-coupled mass spectrometry (LC–MS); conditions: 2 µM
[17] = The drug is tested on Z-008 corresponding to metagenome with ENA study accession number: PRJEB37062 and ENA sample accession number: ERS12561808 for biotransformation under anaerobic condition. The drug concentrations were measured over 9 timepoints collected between 0 and 24 hours of incubation by liquid-chromatography-coupled mass spectrometry (LC–MS); conditions: 2 µM
[18] = The drug is tested on Z-016 corresponding to mouse gut metagenome with ENA study accession number: PRJEB37062 and ENA sample accession number: ERS12561815 for biotransformation under anaerobic condition. The drug concentrations were measured over 9 timepoints collected between 0 and 24 hours of incubation by liquid-chromatography-coupled mass spectrometry (LC–MS); conditions: 2 µM
[19] = The drug is tested on WLS-010 corresponding to human gut metagenome with ENA study accession number: PRJEB37062 and ENA sample accession number: ERS12561743 for biotransformation under anaerobic condition. The drug concentrations were measured over 9 timepoints collected between 0 and 24 hours of incubation by liquid-chromatography-coupled mass spectrometry (LC–MS); conditions: 2 µM
[20] = The drug is tested on Z-007 corresponding to rat gut metagenome with ENA study accession number: PRJEB37062 and ENA sample accession number: ERS12561807 for biotransformation under anaerobic condition. The drug concentrations were measured over 9 timepoints collected between 0 and 24 hours of incubation by liquid-chromatography-coupled mass spectrometry (LC–MS); conditions: 2 µM
Also: call rule not given here.

| SMILES | Bacterial Biotransformation [1] | Bacterial Biotransformation [2] | Bacterial Biotransformation [3] | Bacterial Biotransformation [4] | Bacterial Biotransformation [5] | Bacterial Biotransformation [6] | Bacterial Biotransformation [7] | Bacterial Biotransformation [8] | Bacterial Biotransformation [9] | Bacterial Biotransformation [10] | Bacterial Biotransformation [11] | Bacterial Biotransformation [12] | Bacterial Biotransformation [13] | Bacterial Biotransformation [14] | Bacterial Biotransformation [15] | Bacterial Biotransformation [16] | Bacterial Biotransformation [17] | Bacterial Biotransformation [18] | Bacterial Biotransformation [19] | Bacterial Biotransformation [20] |
| --- | --- | --- | --- | --- | --- | --- | --- | --- | --- | --- | --- | --- | --- | --- | --- | --- | --- | --- | --- | --- |
| C#C[C@]1(OC(C)=O)CC[C@H]2[C@@H]3CCC4=C/C(=N/O)CC[C@@H]4[C@H]3CC[C@@]21CC [NORGESTIMATE] | Compound NOT metabolized | Compound metabolized | Compound NOT metabolized | Compound metabolized | Compound metabolized | Compound metabolized | Compound metabolized | Compound metabolized | Compound metabolized | Compound NOT metabolized | Compound NOT metabolized | Compound metabolized | Compound NOT metabolized | Compound NOT metabolized | Compound NOT metabolized | Compound NOT metabolized | Compound NOT metabolized | Compound NOT metabolized | Compound metabolized | Compound NOT metabolized |
| COc1ccnc(C[S+]([O-])c2nc3ccc(OC(F)F)cc3[nH]2)c1OC (stereo not given) [PANTOPRAZOLE] | Compound metabolized | Compound metabolized | Compound metabolized | Compound metabolized | Compound metabolized | Compound metabolized | Compound metabolized | Compound metabolized | Compound metabolized | Compound metabolized | Compound NOT metabolized | Compound metabolized | Compound metabolized | Compound metabolized | Compound metabolized | Compound NOT metabolized | Compound metabolized | Compound metabolized | Compound metabolized | Compound NOT metabolized |
| CN(CCOc1ccc(CC2SC(=O)NC2=O)cc1)c1ccccn1.O=C(O)/C=C\C(=O)O (stereo not given) [ROSIGLITAZONE MALEATE] | Compound NOT metabolized | Compound NOT metabolized | Compound NOT metabolized | Compound metabolized | Compound metabolized | Compound metabolized | Compound metabolized | Compound NOT metabolized | Compound metabolized | Compound metabolized | Compound NOT metabolized | Compound NOT metabolized | Compound NOT metabolized | Compound metabolized | Compound NOT metabolized | Compound NOT metabolized | Compound NOT metabolized | Compound NOT metabolized | Compound NOT metabolized | Compound NOT metabolized |

Next, values leading:

| Bacterial Biotransformation [1] | Bacterial Biotransformation [2] | Bacterial Biotransformation [3] | Bacterial Biotransformation [4] | Bacterial Biotransformation [5] | Bacterial Biotransformation [6] | Bacterial Biotransformation [7] | Bacterial Biotransformation [8] | Bacterial Biotransformation [9] | Bacterial Biotransformation [10] | Bacterial Biotransformation [11] | Bacterial Biotransformation [12] | Bacterial Biotransformation [13] | Bacterial Biotransformation [14] | Bacterial Biotransformation [15] | Bacterial Biotransformation [16] | Bacterial Biotransformation [17] | Bacterial Biotransformation [18] | Bacterial Biotransformation [19] | Bacterial Biotransformation [20] | SMILES |
| --- | --- | --- | --- | --- | --- | --- | --- | --- | --- | --- | --- | --- | --- | --- | --- | --- | --- | --- | --- | --- |
| Compound metabolized | Compound metabolized | Compound NOT metabolized | Compound metabolized | Compound metabolized | Compound metabolized | Compound metabolized | Compound metabolized | Compound metabolized | Compound metabolized | Compound NOT metabolized | Compound NOT metabolized | Compound NOT metabolized | Compound metabolized | Compound NOT metabolized | Compound NOT metabolized | Compound NOT metabolized | Compound NOT metabolized | Compound metabolized | Compound NOT metabolized | COc1ccc2cc([C@H](C)C(=O)O)ccc2c1 [NAPROXEN] |
| Compound metabolized | Compound metabolized | Compound NOT metabolized | Compound NOT metabolized | Compound metabolized | Compound metabolized | Compound metabolized | Compound metabolized | Compound metabolized | Compound metabolized | Compound NOT metabolized | Compound NOT metabolized | Compound NOT metabolized | Compound NOT metabolized | Compound NOT metabolized | Compound NOT metabolized | Compound NOT metabolized | Compound NOT metabolized | Compound metabolized | Compound NOT metabolized | O=C1N=C([O-])NC1(c1ccccc1)c1ccccc1.[Na+] [PHENYTOIN SODIUM] |
